# Results reported in patent US20120058133A1, “INHIBITION OF TRNA SYNTHETASES AND THERAPEUTIC APPLICATIONS THEREOF” (President and Fellows of Harvard College, priority 2009, published 2012).
# Entries after “also recorded” stand apart in the source; their conditions may differ.
# Key:
# dermal ECM deposition = settings: Pines et al. 2003; cited from earlier work
# TGFβ signaling = test: Lymphocyte responses to TGFβ (Smad phosphorylation and others); type: cell-based, mouse; settings: low dose HF; 10 μM SB-431542
# Description: FIG. 8. […] FIG. 8A is a set of FACS analyses of CD4^+ CD25^− T cells activated in Th1 or Th2 polarizing conditions, either in the presence or absence of TGFβ. DMSO, 10 nM HF, 10 nM MAZ1310, or 10 μM SB-431542 added as indicated at the time of activation. Intracellular cytokine staining was performed on expanded T cells on day 5.
# FIG. 8B is a set of FACS analyses of CD8^+ T cells activated in the presence or absence of TGFβ and cultured with DMSO, 10 nM HF, 10 nM MAZ1310, or 10 μM SB-431542. Expanded cells were restimulated on day 5 and intracellular staining was performed.
# FIG. 8C is a set of FACS analyses of CFSE-labeled B cells activated by LPS stimulation in the presence or absence of TGFβ plus DMSO, 10 nM HF, 10 nM MAZ1310, or 10 μM SB-431542. Intracellular IL-6 production in B cells restimulated with PMA plus ionomycin, or cell-surface IgA expression was determined 4 days after activation.
# FIG. 8D depicts western blot analyses of purified CD4^+ CD25^− T cells treated with DMSO, 40 nM MAZ1310, titrating concentrations of HF (2.5-40 nM) or 10 μM SB-431542 for 30 minutes in complete medium supplemented with 0.1% fetal calf serum. T cells were then activated in the presence or absence of 3 ng/ml TGFβ. Whole cell extracts were prepared after 1 hour of stimulation and western blot analyses were performed using the indicated antibodies. […]
# [1] = tested on: translation in rabbit reticulocyte lysate; test: In vitro translation in rabbit reticulocyte lysate (RRL); type: biochemical; settings: for rescue of translation inhibition by added amino acids: excess amino acids (1-2 mM)
# Description: FIG. 23. HF and FF inhibit prolyl tRNA synthetase activity in vitro. […] Rabbit reticulocyte lysate (RRL) was incubated with luciferase mRNA and translation quantitated in a luminescence assay. A high concentration of mixed or individual amino acids (1 mM of each) was added to rescue translational inhibition. AA Mix 1: Asn, Arg, Val, Glu, Gly; AA Mix2: Lys, Ile, Tyr, Asp, Trp; Mix 3: His, Met, Leu, Ala, Thr; Mix 4: Ser, Phe, Pro, Gln. […] Note log scale of y axis.
# Inhibitors (FIG. 22) and proline were assayed as described in FIG. 23A. Note log scale at Y axis. Error bars reflect standard deviation of triplicate determinations.
# Short myc-tagged polypeptides of identical sequence (see Example 9, “Materials and Methods”) with the exception that NoPro lacks proline, while ProPro contains a proline dipeptide, were translated in RRL in the presence of indicated inhibitors. Translation was examined by anti-myc Western blot.
# Note log scale of Y axis.
# Translation in vitro was performed using rabbit reticulocyte lysates and luciferase mRNA as template. Translation was measured as arbitrary units of luciferase activity using a luminometer based luminescence assay. Log scale presentation of background-subtracted data is shown.
smiles,measurement,setting,value
"O=C(CC1NCCCC1O)Cn1cnc2cc(Br)c(Cl)cc2c1=O (racemic) [HF, halofuginone]",dermal ECM deposition,dermal ECM deposition,potently reduces dermal extracellular matrix (ECM) deposition; also recorded: reduces excess dermal ECM deposition
same,TGFβ-induced Smad phosphorylation and other lymphocyte responses to TGFβ,TGFβ signaling,inhibited neither
same,translation of NoPro polypeptide,[1],had no effect on the translation of NoPro
same,translation of ProPro polypeptide,[1],prevented translation of ProPro
same,rescue of translation inhibition by added purified EPRS,[1]; 80 ng or 0.5 μg EPRS,rescued HF/FF-inhibition of protein translation
same,translation of luciferase mRNA,[1]; 400 nM halofuginone,inhibition of translation
same,eIF2-alpha phosphorylation in RRL,[1]; data not shown,no increase
same,rescue of translation inhibition by added amino acids,[1],only proline could restore translation
same,rescue of translation inhibition by added amino acids,[1]; listed as halofuginone,rescues inhibition of translation by halofuginone
same,translation of luciferase RNA in RRL,[1]; standard amino acid mix,inhibited the translation of luciferase RNA
